Reference: patent US12478081B2, “Application of aspartic acid derivative in preparing animal feed additive” (ANIPHA TECHNOLOGIES PTY LTD, priority 2018, dated 2025)
Marks after values point to notes of the source that are not given here.

Columns and labels:
[1] = system: weaned piglets; experiment: Breeding test: production performance of weaned piglets; format: in vivo, Duroc×Landrace×Yorkshire cross-bred weaned piglets; details: weaned piglets, 1000 ppm metal ion salt in basal daily ration, 40 days
Source text: From 95 litters of 28±2 days old Duroc×Landrace×Yorkshire cross-bred weaned piglets, 360 clinically healthy piglets with similar body weights were selected as test pigs, which were randomly divided into 12 groups, with 3 replications per group and 10 pigs (half of male and female) per replication. The piglets were attracted to the food trough at the age of 7 days, and the hog house for 28-day-old weaned pigs has a cement floor, steel fence, good ventilation, and suitable temperature. The pigpens and utensils were sterilized before the test.
During the test period, the test pigs were free-stall housed in the same pigpen under the same feeding and management conditions, and were free to drink water and eat feed. The hog house was cleaned once a day, and the floor is washed once every three days to maintain clean and hygienic conditions. The test pigs were fed three times a day. The test groups include control and test groups. Group I is the control group, in which only the basal daily ration was fed to the piglets. […] 1000 ppm of a the aspartic acid derivative metal ion salt was added into the basal daily ration for the piglets in the groups VIII-XII, as shown in Table 2. No other antioxidant ingredients or growth promoters were added for the test groups during the entire feeding process. The test period was 40 days.
The test pigs were weighed during 7:00 to 9:00 in the morning of Day 0 and Day 40 after the start of the test. During the test period, the feed intake and health status of the piglets were observed every day, the remaining daily ration was weighed, the feed consumption was recorded, and the average daily feed intake (ADFI, g/d*each pig), the average daily gain (ADG, g/d*each pig), and the feed conversion ratio (FCR) were calculated. Calculation formulas are as follows: […]
The test data was statistically analyzed using SPSS18 software. First, a one-way analysis of variance (ANOVA) was performed on the data. If the difference between treatments is significant, Duncan's method was used for multiple comparisons, and the significance level was 0.05.

[2] = Thermal stability of compounds at 60° C. (HPLC content of raw material and 2% premix); format: physicochemical; details: for Detection result of the content of test sample (%) Day 5: Day 5, relative to Day 0; for Detection result of the content of test sample (%) Day 10: Day 10, relative to Day 0
Procedure: The variations of the contents of the main ingredient of the aspartic acid derivative raw material and the main ingredient of a premix containing 2% mass fraction of the aspartic acid derivative (hereinafter referred to as 2% premix) over time were investigated under the conditions of stability test at 60° C.
Experimental apparatus: drug stability incubator, Waters high-performance liquid chromatograph (HPLC), etc.
Test samples: N-carbamoyl-DL-aspartic acid (compound 1), diethyl N-carbamoyl-DL-aspartate (compound 2), Sodium N-carbamoyl-DL-aspartate (compound 3), Calcium N-carbamoyl-DL-aspartate (compound 4), Zinc N-carbamoyl-DL-aspartate (compound 5), Copper N-carbamoyl-DL-aspartate (compound 6), Iron N-carbamoyl-DL-aspartate (compound 7), N-glycyl-DL-aspartic acid (compound 8), N-(4-aminobutyryl)-DL-aspartic acid (compound 9), N-(10-aminodecanoyl)-DL-aspartic acid (compound 10), N-(14-aminomyristoyl)-DL-aspartic acid (compound 11).
Preparation of standard solution: 50 mg of the test sample raw material was ultrasonically dissolved in 50 mL of water to obtain a working reserve solution. An appropriate amount of the working reserve solution was taken and diluted with water respectively to concentrations of 125 ppm, 250 ppm, 500 ppm, and 1000 ppm for HPLC testing. It was checked whether the sample concentrations are in a linear relationship with the peak area response values in HPLC, and a standard curve was established.
Preparation of test solution: An appropriate amount of the test sample raw material and an appropriate amount of a premix containing 2% mass fraction of the test sample (hereinafter referred to as 2% premix) were separately ultrasonically dissolved in an appropriate amount of water to form a 1000 ppm solution, which is filtered through a 0.22 µm filter membrane and then analyzed by HPLC.
HPLC analysis conditions: chromatographic column: Waters C18 column (250 mm×4.6 mm, 5 μm); mobile phase: 0.05% phosphoric acid:methanol=95:5 (v:v) (raw material); 0.05% phosphoric acid: methanol (gradient elution); methanol: 5%→40% (0-15 min) curve 6, 40%→5% (15-16 min) curve 1, 5% (16-23 min) curve 1, (premix, feed); detection wavelength: 210 nm; column temperature: 25° C.; sample size: 20 μL; flow rate: 1 mL/min.
Test method: The test sample raw material and its 2% premix were placed in a culture plate, spread into a thin layer of <5 mm, and placed at 60° C. Samples were taken on the day 5 and ? day 10 for HPLC detection. Each sample was sampled three times in parallel.

| SMILES | ADFI (g/d*each pig) [1] | ADG (g/d*each pig) [1] | FCR [1] | Detection result of the content of test sample (%) Day 5 ([2]; 2% premix) | Detection result of the content of test sample (%) Day 10 ([2]; 2% premix) | Detection result of the content of test sample (%) Day 5 ([2]; Raw material) | Detection result of the content of test sample (%) Day 10 ([2]; Raw material) |
| --- | --- | --- | --- | --- | --- | --- | --- |
| NC(=O)NC(CC(=O)[O-])C(=O)[O-].[Na+].[Na+] (racemic) [Compound 3, Sodium N-carbamoyl-DL-aspartate] | 388 ± 11^bc g/d*each pig | 182 ± 2^d g/d*each pig | 2.13 ± 0.04 | 99.33% | 99.21% | 103.02% | 103.53% |
| NC(=O)NC(CC(=O)[O-])C(=O)[O-].[Ca+2] (racemic) [Compound 4, Calcium N-carbamoyl-DL-aspartate] | 333 ± 8^a g/d*each pig | 157 ± 0^c g/d*each pig | 2.13 ± 0.05 | 98.93% | 97.99% | 101.54% | 101.87% |
| NC(=O)NC(CC(=O)[O-])C(=O)[O-].[Zn+2] (racemic) [Compound 5, Zinc N-carbamoyl-DL-aspartate] | 418 ± 19^c g/d*each pig | 198 ± 3^6 g/d*each pig | 2.11 ± 0.07 | 96.89% | 96.36% | 99.76% | 98.47% |
| NC(=O)NC(CC(=O)[O-])C(=O)[O-].[Cu+2] (racemic) [Compound 6, Copper N-carbamoyl-DL-aspartate] | 329 ± 13^a g/d*each pig | 156 ± 1^c g/d*each pig | 2.11 ± 0.07 | 98.28% | 97.94% | 99.91% | 98.31% |
| NC(=O)NC(CC(=O)[O-])C(=O)[O-].[Fe+2] (racemic) [Compound 7, Iron N-carbamoyl-DL-aspartate] | 330 ± 11^a g/d*each pig | 153 ± 1^bc g/d*each pig | 2.15 ± 0.06 | 96.74% | 94.98% | 97.63% | 96.01% |
